Broadly, the inhibition is how much of the control response was suppressed. Higher therefore signals strong suppression.

Here are results for five compounds from US5641802A, “Tachyquinine antagonists, their preparation and use in pharmaceutical formulations” (A. Menarini Industrie Farmaceutiche Reiunite S.r.l., priority 1992, dated 1997).

The target of the experiment is T1, NK1 receptor (Homo sapiens, UniProt P25103).
T1 construct: endogenous in cells; host or cells: IM9 cells (intact)
The experiment can be described thus: [3H] SP binding assay in IM9 Cell Line (Substance P antagonism). The note with it: intact IM9 cells, 60 min, room temperature, compound at 1 μM. The method, then:
Assessment of biological activity (NK1 antagonism) of compounds of this invention was performed by means of the following binding and functional assays:
[3H] SP binding assay in IM9 Cell Line
Binding assay was performed with intact cells as described by Payan et al. (J. Immunology 133, 3260 (1984)). Cells were washed with buffer A, (pH 7.5), containing (in mM) Tris-HCl 50, and NaCl 150, plus 0.02% BSA, and then resuspended in assay buffer (buffer A supplemented with protease inhibitors) at a concentration of 1×10^7 cells/ml. Cells were incubated with [3H]SP in a final volume of 0.5 ml for 60 min. at room temperature. Nonspecific binding was determined in the presence of […] nonradioactive SP. The assay mixture was set up in microfuge tubes that had been presoaked in a 0.5% BSA solution for at least 3 hours. Bound and free [^3 H]SP were separated by pelleting the cells in a microfuge (6 min.; 12000 g); the supernatant was then removed by aspiration. For competition binding experiments, IM9 cells were incubated in triplicate with […] [^3 H]SP (the approximate Kd value, as determined in saturation binding experiments); competing ligands were typically added in six concentrations (1:10 dilutions in assay buffer) to give full competition curves.

T1 sequence (P25103 whole entry): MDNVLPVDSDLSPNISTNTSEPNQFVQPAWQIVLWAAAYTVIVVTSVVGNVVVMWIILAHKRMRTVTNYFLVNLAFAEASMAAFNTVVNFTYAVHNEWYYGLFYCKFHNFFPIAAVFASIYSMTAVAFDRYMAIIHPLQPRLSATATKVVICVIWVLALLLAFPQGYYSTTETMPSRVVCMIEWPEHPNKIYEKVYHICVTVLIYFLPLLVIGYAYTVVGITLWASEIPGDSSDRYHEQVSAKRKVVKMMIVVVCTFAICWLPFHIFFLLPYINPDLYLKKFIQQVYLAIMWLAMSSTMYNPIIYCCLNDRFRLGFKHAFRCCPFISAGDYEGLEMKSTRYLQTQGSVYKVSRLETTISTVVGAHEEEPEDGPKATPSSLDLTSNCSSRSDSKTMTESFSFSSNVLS

In turn, `CN(Cc1ccccc1)C(=O)[C@H](Cc1ccccc1)NC(=O)C1CCCCC1NC(=O)c1c[nH]c2ccccc12` (stereo partly drawn) [Example 1 fast, N-methyl-N-benzylamide of N^α -{[N(indol-3-yl-carbonyl)(R,R)-trans-2-amino]cyclohexanoyl}-L-phenylalanine and N-methyl-N-benzylamide of N^α -{[N(indol-3-yl-carbonyl)(S,S)-trans-2-amino]cyclohexanoyl}-L-phenylalamine, reference compound] showed an inhibition at 1 µM of 96%.

Regarding `CN(Cc1ccccc1)C(=O)[C@H](Cc1ccccc1)NC(=O)C1CCCCC1NC(=O)c1c[nH]c2ccccc12` (stereo partly drawn) [Example 2 fast, N-methyl-N-benzylamide of N^α -{[N(indol-3-yl-carbonyl)(R,S)-cis-2-amino]cyclohexanoyl}-L-phenylalanine and N-methyl-N-benzylamide of N^α -{[N(indol-3-yl-carbonyl)(S,R)-cis-2-amino]cyclohexanoyl}-L-phenylalanine], the “% of binding inhibition at 1 μM” value (1 µM) worked out at 100%.

Turning to `CN(Cc1ccccc1)C(=O)[C@H](Cc1ccc2ccccc2c1)NC(=O)C1CCCCC1NC(=O)c1c[nH]c2ccccc12` (stereo partly drawn) [Example 3 fast, N^α [N-(1H-indol-3-yl-carbonyl)-(R,S)cis-2-aminocyclohexyl-carbonyl]-L-3(2-naphthyl)alanyl-N-methyl-N-benzylamide and N^α [N-(1H-indol-3-yl-carbonyl)-(S,R)cis-2-aminocyclohexyl-carbonyl]-L-3(2-naphthyl)alanyl-N-methyl-N-benzylamide], the inhibition at 1 µM came to 100%.

In the case of `CN(Cc1ccccc1)C(=O)[C@H](Cc1ccc2ccccc2c1)NC(=O)C1C2CCC(C2)C1NC(=O)c1c[nH]c2ccccc12` (stereo partly drawn) [Example 10 fast, N^α [N-(1H-indol-3-yl-carbonyl)-3S-endoaminobicyclo(2,2,1)heptyl-2R endocarbonyl]-L-3-(2-naphthyl)alanyl-N-methyl-N-benzylamide and N^α [N-(1H-indol-3-yl-carbonyl)-3R-endoaminobicyclo(2,2,1)heptyl-2S-endocarbonyl]-L-3-(2-naphthyl)alanyl-N-methyl-N-benzylamide], the inhibition at 1 µM was 95%.

`CN(Cc1ccccc1)C(=O)[C@@H](Cc1ccc2ccccc2c1)NC(=O)C1CCCCC1NC(=O)c1ccccc1` (stereo partly drawn) [Example 17 fast, N^α [N-(benzoyl)-(R,S)cis-2-aminocyclohexyl-carbonyl]-D-3-(2-naphthyl)alanyl-N-methyl-N-benzylamide and N^α [N-(benzoyl)-(S,R)cis-2-aminocyclohexyl-carbonyl]-D-3-(2-naphthyl)alanyl-N-methyl-N-benzylamide] had an inhibition at 1 µM of 98%.
